{"source": "paper PMC10892818", "about": "“An Antiherpesviral Host-Directed Strategy Based on CDK7 Covalently Binding Drugs: Target-Selective, Picomolar-Dose, Cross-Virus Reactivity” (Pharmaceutics, 2024)", "key": {"[1]": {"test": "Neutral Red uptake assay (NRA), uninfected HFFs", "format": "cell-based", "conditions": "human, read-out: CC50 (VZV-GFP system)", "description": "The cytotoxic level of the compounds was determined by the use of an established quantitation of cell viability (i.e., Neutral Red uptake assay) performed after 3–7 d of compound incubation on uninfected cells (according to the respective duration of the antiviral reporter-based replication assay performed in parallel) as described earlier in [44]."}, "HCMV UL97-C603W": {"tested_on": "HCMV UL97-C603W", "test": "HCMV reporter-based antiviral assay, drug-resistant mutant", "format": "cell-based, human cytomegalovirus", "conditions": "Human betaherpesvirus 5, read-out: Measured EC50 ref. drugs UL97-C603W", "description": "(§1) For the infection experiments, stocks of the following recombinant, reporter protein-expressing viruses (GFP or YFP (i.e., green or yellow fluorescent protein, respectively)) were propagated (in permissive cells), determined in their infectious titers performing the respective reporter assays, stored by aliquots at −80 °C, and used for the assessment of antiviral drug activities: human cytomegalovirus HCMV AD169-GFP (HFFs); murine cytomegalovirus MCMV C3X-GFP (MEFs); guinea pig cytomegalovirus GPCMV v403-GFP (GPEFs); human herpesvirus type 6A HHV-6A U1102-GFP (J-Jhan); herpes simplex virus type 1 HSV-1 166v VP22-GFP (HFFs); varicella zoster virus VZV Oka-GFP (HFFs); Epstein-Barr virus EBV Akata-GFP (Akata-BX1-GFP carrier cells; kindly provided by Lindsey Hutt-Fletcher and Rona Scott, Dept. Microbiol. Immunol., LSUHSC Univ., Shreveport, LA, USA); and Kaposi’s sarcoma-associated herpesvirus KSHV rKSHV.219-GFP/RFP (in iSLK.219 carrier cells).\n(§2) For HCMV AD169-GFP infection, the replication assay was based on a seeding of 225,000 HFFs or 13,500 HFFs in 12 well or 96 well plates, respectively, which were then inoculated with HCMV AD169-GFP [55] at an MOI of 0.25 GFP-FU/mL/7 d for a 90 min period of inoculum–cell adsorption, followed by a medium refreshment including the immediate addition of antiviral compounds. At 7 d p.i., the infected HFFs were either directly fixed with 10% formalin for 20 min at 4 °C (when used for infection in the 96 well format) or lysed and transferred to 96 well plates (when used for infection in the 12 well format) so that the reporter of viral replication could be quantified by GFP fluorometry using a Perkin Elmer Victor X4 Multimode Plate Reader (Perkin Elmer, Waltham, MA, USA).\n(§3) Due to the fact that the HCMV-encoded protein kinase pUL97 represents a functional and structural ortholog of the host CDKs (vCDK/pUL97), the viral mutants of ORF-UL97 were assessed for sensitivity against CDK7 inhibitors."}, "HCMV UL97-F342S [2]": {"tested_on": "HCMV UL97-F342S", "test": "HCMV reporter-based antiviral assay, drug-resistant mutant", "format": "cell-based, human cytomegalovirus", "conditions": "Human betaherpesvirus 5, read-out: Measured EC50 ref. drugs UL97-F342S", "description": "as §1, §2, §3"}, "HCMV UL97-H520Q": {"tested_on": "HCMV UL97-H520Q", "test": "HCMV reporter-based antiviral assay, drug-resistant mutant", "format": "cell-based, human cytomegalovirus", "conditions": "Human betaherpesvirus 5, read-out: Measured EC50 ref. drugs UL97-H520Q", "description": "as §1, §2, §3"}, "HCMV UL97-L397R [3]": {"tested_on": "HCMV UL97-L397R", "test": "HCMV reporter-based antiviral assay, drug-resistant mutant", "format": "cell-based, human cytomegalovirus", "conditions": "Human betaherpesvirus 5, read-out: Measured EC50 ref. drugs UL97-L397R", "description": "as §1, §2, §3"}, "HCMV UL97-M460I": {"tested_on": "HCMV UL97-M460I", "test": "HCMV reporter-based antiviral assay, drug-resistant mutant", "format": "cell-based, human cytomegalovirus", "conditions": "Human betaherpesvirus 5, AD169, read-out: Measured EC50 ref. drugs UL97-M460I", "description": "as §1, §2, §3"}, "HCMV UL97-T409M [4]": {"tested_on": "HCMV UL97-T409M", "test": "HCMV reporter-based antiviral assay, drug-resistant mutant", "format": "cell-based, human cytomegalovirus", "conditions": "Human betaherpesvirus 5, read-out: Measured EC50 ref. drugs UL97-T409M", "description": "as §1, §2, §3"}, "HCMV UL97-T409M [5]": {"tested_on": "HCMV UL97-T409M", "set-up": "method as in PMID 31940472; key: R-high, high-level drug resistance; R-int, intermediate-level drug resistance; R-low, low-level drug resistance; S, drug sensitivity", "conditions": "cited from earlier work"}, "HCMV UL97-C480F": {"tested_on": "HCMV UL97-C480F", "set-up": "method as in PMID 31940472; key: R-high, high-level drug resistance; R-int, intermediate-level drug resistance; R-low, low-level drug resistance; S, drug sensitivity", "conditions": "cited from earlier work"}, "HCMV UL97-L397R [6]": {"tested_on": "HCMV UL97-L397R", "set-up": "method as in PMID 31940472; key: R-high, high-level drug resistance; R-int, intermediate-level drug resistance; R-low, low-level drug resistance; S, drug sensitivity", "conditions": "cited from earlier work"}, "HCMV UL97-F342S [7]": {"tested_on": "HCMV UL97-F342S", "set-up": "method as in PMID 31940472; key: R-high, high-level drug resistance; R-int, intermediate-level drug resistance; R-low, low-level drug resistance; S, drug sensitivity", "conditions": "(for F342Y); cited from earlier work"}}, "data": [{"smiles": "Nc1ccn(C[C@@H](CO)OCP(=O)(O)O)c(=O)n1", "note": "[CDV, cidofovir]", "values": [{"measurement": "CC50", "setting": "[1]", "value": "> 100000", "unit": "nM"}, {"measurement": "EC50", "setting": "HCMV UL97-C603W", "value": 410, "unit": "nM"}, {"measurement": "EC50", "setting": "HCMV UL97-F342S [2]", "value": 190, "unit": "nM"}, {"measurement": "EC50", "setting": "HCMV UL97-H520Q", "value": 100, "unit": "nM"}, {"measurement": "EC50", "setting": "HCMV UL97-L397R [3]", "value": 340, "unit": "nM"}, {"measurement": "EC50", "setting": "HCMV UL97-M460I", "value": 70, "unit": "nM"}, {"measurement": "EC50", "setting": "HCMV UL97-T409M [4]", "value": 260, "unit": "nM"}, {"measurement": "Reported phenotype UL97-T409M", "setting": "HCMV UL97-T409M [5]", "value": "S"}, {"measurement": "Reported phenotype UL97-C480F", "setting": "HCMV UL97-C480F", "value": "S"}, {"measurement": "Reported phenotype UL97-L397R", "setting": "HCMV UL97-L397R [6]", "value": "S"}, {"measurement": "Reported phenotype UL97-F342S", "setting": "HCMV UL97-F342S [7]", "value": "S"}]}, {"smiles": "Nc1nc(O)c2ncn(COC(CO)CO)c2n1", "note": "[GCV, ganciclovir]", "values": [{"measurement": "CC50", "setting": "[1]", "value": "> 100000", "unit": "nM"}, {"measurement": "EC50", "setting": "HCMV UL97-C603W", "value": "9870 ± 1000", "unit": "nM"}, {"measurement": "EC50", "setting": "HCMV UL97-F342S [2]", "value": "17100 ± 1500", "unit": "nM"}, {"measurement": "EC50", "setting": "HCMV UL97-H520Q", "value": "10700 ± 700", "unit": "nM"}, {"measurement": "EC50", "setting": "HCMV UL97-L397R [3]", "value": "2240 ± 500", "unit": "nM"}, {"measurement": "EC50", "setting": "HCMV UL97-M460I", "value": "9240 ± 3300", "unit": "nM"}, {"measurement": "EC50", "setting": "HCMV UL97-T409M [4]", "value": "1980 ± 200", "unit": "nM"}, {"measurement": "Reported phenotype UL97-T409M", "setting": "HCMV UL97-T409M [5]", "value": "R-low"}, {"measurement": "Reported phenotype UL97-C480F", "setting": "HCMV UL97-C480F", "value": "R-int"}, {"measurement": "Reported phenotype UL97-L397R", "setting": "HCMV UL97-L397R [6]", "value": "S"}, {"measurement": "Reported phenotype UL97-F342S", "setting": "HCMV UL97-F342S [7]", "value": "R-high"}]}]}
